Measured values as given in patent US9447014B2, “Tromethamine salt of bimatoprost acid in crystalline form, methods for preparation, and methods for use thereof” (ALLERGAN, INC., priority 2012, dated 2016).
Counter-ions that a name gives are not always drawn. Like-named read-outs stand apart in the source and are kept apart here.

Assays:
Assay type in all cases: physicochemical
[1] = physical stability on storage
[2] = dissolution rate compared with the free acid
[3] = solubility of the tromethamine salt
[4] = gravimetric vapor sorption (GVS) analysis
Description: At relative humidity above 80% RH, tromethamine salt of bimatoprost acid behaves hygroscopic with a a significant moisture uptake observed. The significant uptake of moisture may be a result of the large specific surface area of the material. On desorption, the adsorbed water was rapidly lost with no equilibrium established. At the end of the gravimetric vapor sorption (GVS) cycle, at 40% RH, the overall sample mass increased by 5 wt %.

Which physical stability ([1]; 25° C./60% RH in open container closure) does the source give for `O=C(O)CCC/C=C/CC1C(O)CC(O)C1/C=C/C(O)CCc1ccccc1` (stereo not shown) [tromethamine salt of bimatoprost acid, tromethamine salt of 7-[3,5-Dihydroxy-2-(3-hydroxy-5-phenyl-pent-1-enyl)-cyclopentyl]-hept-5-enoic acid] here?
Its physical stability is greater than 3 months.

What about the physical stability ([1]; 40° C./75% RH in closed container closure) of the same compound?
The physical stability was greater than 3 months.

And the dissolution rate [2]?
Its dissolution rate is “faster dissolution rate than the free acid”.

What about the solubility ([3]; aqueous buffer, at pH 6.5, read-out: solubility) of the same compound?
The solubility was greater than 250 mg/mL.

And the solubility ([3]; in formulation vehicles, no surfactant needed)?
Its solubility is roughly 25 w/v %.

And the “GVS analysis: deliquescence” value ([4]; 90% RH)?
Its value is “no deliquescence”.

And the “GVS analysis: hydrate formation” value ([4]; 90% RH)?
Its value is “no hydrate”.

And the “overall sample mass increase at the end of the GVS cycle” value ([4]; end of GVS cycle, at 40% RH)?
Its value is 5 wt %.

And the “XRPD re-analysis post GVS analysis (change in crystalline form)” value ([4]; post GVS analysis)?
The value was “no change in the crystalline Form 1”.

And the “hygroscopic behaviour (moisture uptake)” value ([4]; relative humidity above 80% RH)?
The value was “hygroscopic”.
